Measured values as given in PMC5675618, “Identification and validation of FGFR2 peptide for detection of early Barrett's neoplasia” (Oncotarget, 2017).
No end group written: not given here. Cy5.5 = near-infrared fluorophore Cy5.5

Columns and labels:
[1] = test system: QhTERT cells that express FGFR2c; assay: Confocal fluorescence microscopy, binding to QhTERT cells that express FGFR2c; format: cell-based, human; details: 1 μM peptide, 10 min at RT; confocal, 63X
Excerpt: (§1) All human esophageal specimens were obtained with written, informed patient consent per approval and guidelines of the University of Michigan Institutional Review Board (IRB). Human non-dysplastic Barrett's esophagus (BE) cells immortalized with hTert (QhTERT) were obtained from the American Type Culture Collection (ATCC) and cultured in keratinocyte-serum free medium containing bovine pituitary extract and human recombinant EGF (ThermoFisher #17005042). QhTERT cells with stable expression of FGFR2b or FGFR2c were provided (DGB). We cultured these cells with keratinocyte-serum free medium containing bovine pituitary extract and human recombinant EGF (ThermoFisher #17005042) and added 1 μg/mL of puromycin-dihydrochloride (Invitrogen #A11138-03). All cells were cultured at 37°C in 5% CO2, and were passaged using 0.25% EDTA containing trypsin (Mediatech Inc). A hemocytometer was used to determine cell number. Peptide synthesis reagents were obtained from either Anaspec or AAPPTEC with the highest grade available (>99% purity) and used without further purification. Solvents and other chemical reagents were obtained from Sigma-Aldrich, unless otherwise stated.
(§2) ~10^3 QhTERT/wt, QhTERT/FGFR2b, and QhTERT/FGFR2c cells were grown on cover glass to ~80% confluence. The cells were washed with PBS 1X and incubated with 1 μM of either peptide for 10 min at RT. The cells were then washed 3X in PBS, fixed with 4% paraformaldehyde (PFA) for 5 min, washed 1X with PBS, and then mounted on glass slides with ProLong Gold reagent containing DAPI (Invitrogen). Confocal fluorescence images were collected with Cy5.5 and DAPI filters (Leica Inverted SP5X 2-Photon FLIM confocal microscopes) using a 63X oil-immersion objective. Fluorescence intensities from 3 cells in each of 3 independent images were quantified using custom Matlab (Mathworks) software.

[2] = test system: QhTERT cells that express FGFR2b; assay: Confocal fluorescence microscopy, binding to QhTERT cells that express FGFR2b; format: cell-based, human; details: 1 μM peptide, 10 min at RT; confocal, 63X
Excerpt: as §1, §2

QhTERT wild-type cells = assay: Confocal fluorescence microscopy, binding to wild-type QhTERT cells; format: cell-based, human; details: 1 μM peptide, 10 min at RT, 63X
Excerpt: as §1, with “Peptide synthesis reagents were obtained from either Anaspec or AAPPTEC with the highest grade available (>99% purity) and used without further purification. Solvents and other chemical reagents were obtained from Sigma-Aldrich, unless otherwise stated.” left out
~10^3 QhTERT/wt, QhTERT/FGFR2b, and QhTERT/FGFR2c cells were grown on cover glass to ~80% confluence. […] Confocal fluorescence images were collected with Cy5.5 and DAPI filters (Leica Inverted SP5X 2-Photon FLIM confocal microscopes) using a 63X oil-immersion objective. Fluorescence intensities from 3 cells in each of 3 independent images were quantified using custom Matlab (Mathworks) software.

[3] = Fluorescence spectra of Cy5.5-labeled peptides; format: physicochemical; details: 10 μM in PBS, excitation λex = 671 nm
Excerpt: We synthesized the 12 amino acid sequence SRRPASFRTARE (black) and attached the fluorophore Cy5.5 (red) via a GGGSK linker (blue) on the C-terminus, hereafter SRR^*-Cy5.5, Figure 1A. Cy5.5 was chosen for photostability and high quantum yield in the near-infrared (NIR) spectrum. We used a linker to prevent steric hindrance of the peptide by the dye. We then used a structural model (1EV2), [24] […] This domain is the same in either isoform FGFR2IIIb or FGFR2IIIc. We also used this model to develop a scrambled sequence SPSRERTFRARA for a control, Figure 1C. This peptide was also labeled with Cy5.5 via a GGGSK linker, hereafter SPS^*-Cy5.5. For SPS^*-Cy5.5, we calculated Et = −277.37. […] We purified SRR^*-Cy5.5 and […] to >97% on HPLC, and measured an experimental mass-to-charge (m/z) ratio on mass spectrometry of 2385.31 for both peptides that agreed with the expected value, Supplementary Figure 3.
Figure 1 Peptide specific for FGFR2 Chemical structure is shown for 12 amino acid (aa) peptide sequence (A) SRRPASFRTARE (SRR^*) found to be specific for FGFR2, and (B) scrambled peptide SPSRERTFRARA (SPS^*) used for control. A Cy5.5 fluorophore (red) is attached via a GGGSK linker (blue) to prevent steric hindrance.

[4] = test system: FGFR2c, AKT, ERK phosphorylation in QhTERT cells; assay: Western blot, effect of peptide binding on cell signaling, QhTERT cells expressing FGFR2c; format: cell-based, human; details: 20 min
Procedure: (§3) QhTERT cells that overexpress either FGFR2b or FGFR2c were seeded in 12-well flat-bottom plates with 500 μL of serum-free medium for 16 hours. FGF1 (#2232-FA-025, R&D systems) was reconstituted to a concentration of 100 μg/mL using PBS, diluted with 0.1% bovine serum albumin, and added to the cells at final concentrations of 100 ng/mL for 20 min in separate wells. Heparin (# H3149-10KU, Sigma) with final concentration of 100 units/mL was also added to increase stability. In addition, peptides at concentrations of 5 and 100 μM were incubated for 20 min in separate wells. The cells were washed with PBS and lysed in RIPA buffer containing protease inhibitors (#11836170001, Roche, Basel, Switzerland). Lysates were separated by gel electrophoresis, transferred to polyvinylidene difluoride membranes (#ISEQ00010, Millipore), and detected by immunoblotting using an enhanced chemiluminescence system (#RPN2106, GE Healthcare). Anti-FGFR2 antibody (#SC122, Santa Cruz Biotechnology), anti-phospho-FGFR (#3471, Cell Signaling Technology), anti-AKT (#4691P, Cell Signaling Technology), anti-ERK1/2 (#4695P, Cell Signaling Technology), anti-phospho-AKT (pS473; #4060P, Cell Signaling Technology), anti-phospho-ERK1/2 (#4370P, Cell Signaling Technology), and anti-tubulin (#32–2600, Invitrogen) were used as per manufacturer's instructions.

[5] = test system: FGFR2b, AKT, ERK phosphorylation in QhTERT cells; assay: Western blot, effect of peptide binding on cell signaling, QhTERT cells expressing FGFR2b; format: cell-based, human; details: 20 min
Procedure: as §3

[6] = test system: QhTERT cells that express FGFR2c; assay: Competition for binding of SRR^*-Cy5.5 with unlabeled peptide, confocal microscopy; format: cell-based, human; details: 30 min at 4°C, then 5 μM SRR^*-Cy5.5, 30 min at 4°C
Procedure: Specific peptide binding to QhTERT/FGFR2c was validated on competitive inhibition with addition of unlabeled peptide. ~10^3 cells were grown to ~70% confluence on cover glass in triplicate. Unlabeled peptides at concentrations of 0, 50, 100, 150, 250, and 500 μM were incubated with the cells for 30 min at 4°C. The cells were washed and incubated with 5 μM of the target peptide for another 30 min at 4°C. The cells were washed and fixed with 4% PFA for 5 min. The cells were washed with PBS and mounted with ProLong Gold reagent containing DAPI (Invitrogen).

Barrett's neoplasia = details: topical to mucosal surface, clinic, ref [19], [20], cited from earlier work
Procedure: An empiric peptide labeled with FITC was administered topically to the mucosal surface. Early neoplasia was detected with 94% specificity and 96% positive predictive value. Included in the analysis were 28 flat lesions (Paris 0-IIb) that were poorly visualized with white light. […] Peptides have high diversity, and can achieve high specificity with binding affinities on the ...

FGFR2c on QhTERT cells = biological target: T1, FGFR2c on QhTERT cells (UniProt P21802-1 22-821); assay: flow cytometry on cells; apparent dissociation constant; Cy5.5-labeled peptide 0 to 200 nM in 25 nM increments in PBS, ~10^5 QhTERT/FGFR2c cells, 4°C for 1 hour, mean fluorescence intensity; details: one partner purified
T1 construct: fibroblast growth factor receptor 2, isoform IIIc (C-terminus of D3 encoded by exon 9), stably expressed in human QhTERT cells; also called FGFR2IIIc; isoform IIIc of FGFR2

[7] = FGF1 100 ng/mL, heparin 100 units/mL

T1 sequence (P21802 22-821): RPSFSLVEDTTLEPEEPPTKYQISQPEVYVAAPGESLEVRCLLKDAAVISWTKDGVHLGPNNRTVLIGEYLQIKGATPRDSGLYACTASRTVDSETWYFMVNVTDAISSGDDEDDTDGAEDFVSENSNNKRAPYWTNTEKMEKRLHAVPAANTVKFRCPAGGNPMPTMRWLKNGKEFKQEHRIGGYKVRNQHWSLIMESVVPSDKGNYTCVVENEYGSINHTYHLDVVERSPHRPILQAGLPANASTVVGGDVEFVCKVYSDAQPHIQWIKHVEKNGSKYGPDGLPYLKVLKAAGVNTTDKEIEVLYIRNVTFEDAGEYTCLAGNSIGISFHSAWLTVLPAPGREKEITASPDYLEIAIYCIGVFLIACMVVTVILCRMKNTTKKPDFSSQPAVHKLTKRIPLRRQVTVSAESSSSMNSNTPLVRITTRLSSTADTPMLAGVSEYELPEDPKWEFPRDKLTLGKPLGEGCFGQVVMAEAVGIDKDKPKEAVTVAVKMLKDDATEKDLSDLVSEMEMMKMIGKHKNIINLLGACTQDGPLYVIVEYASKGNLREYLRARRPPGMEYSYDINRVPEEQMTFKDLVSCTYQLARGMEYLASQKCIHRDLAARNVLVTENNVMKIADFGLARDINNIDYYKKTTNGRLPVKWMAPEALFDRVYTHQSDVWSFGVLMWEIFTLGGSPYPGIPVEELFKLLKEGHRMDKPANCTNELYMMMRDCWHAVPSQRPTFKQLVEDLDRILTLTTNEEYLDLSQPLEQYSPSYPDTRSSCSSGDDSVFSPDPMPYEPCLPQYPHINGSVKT

SPSRERTFRARA [SPS^*-Cy5.5]
cell surface fluorescence signal / binding [1]: Minimal binding | cell surface fluorescence signal / binding [2]: Minimal binding | cell surface fluorescence signal / binding (QhTERT wild-type cells): Minimal binding | peak emission λem [3]: 710 nm

SRRPASFRTARE [SRR^*, unlabeled 12 amino acid peptide … specific for FGFR2]
phosphorylation of FGFR2 (p-FGFR), AKT (p-AKT) and ERK (p-ERK) ([4]; peptide at 5 or 100 μM): no change in phosphorylation | phosphorylation of FGFR2 (p-FGFR), AKT (p-AKT) and ERK (p-ERK) ([5]; peptide at 5 or 100 μM): no change in phosphorylation | mean fluorescence intensity of SRR^*-Cy5.5 with unlabeled target peptide ([6]; unlabeled SRR^* at 50 μM and greater vs 0 μM): significant reduction

SPSRERTFRARA [SPS^*, unlabeled scrambled peptide … used for control]
mean fluorescence intensity of SRR^*-Cy5.5 with unlabeled control peptide ([6]; unlabeled SPS^* at any concentration (0, 50, 100, 150, 250, 500 μM)): No significant difference

ASYNYDA [empiric peptide labeled with FITC, 7 amino acid peptide ASYNYDA that was labeled with FITC]
positive predictive value, early neoplasia detection (Barrett's neoplasia; included 28 flat lesions): 96% | specificity, early neoplasia detection (Barrett's neoplasia; included 28 flat lesions): 94% | time of binding (Barrett's neoplasia): ≤ 5 min

FGF1: FGF1 (#2232-FA-025, R&D systems), positive control [reference compound]
phosphorylation of FGFR2 (p-FGFR), AKT (p-AKT) and ERK (p-ERK), positive control [4, 7]: strong phosphorylation activity | phosphorylation of FGFR2 (p-FGFR), AKT (p-AKT) and ERK (p-ERK), positive control [5, 7]: to some extent

B1: SRR*-Cy5.5 (peptide)
peptide: SRRPASFRTAREGGGSK(Cy5.5)-NH2
notes: 12-residue peptide selected by phage display (Ph.D.-12 library) against FGFR2-ECD; linker on the C-terminus that carries the Cy5.5; Assembled on rink amide MBHA resin, so the C-terminus is probably an amide; also called FGFR2 peptide; source: synthetic peptide (Fmoc solid-phase synthesis, prep-HPLC, >97%)
Kd (FGFR2c on QhTERT cells): 68 nM
